In paper PMC9259545, “Impact of poly-arginine peptides R18D and R18 on alteplase and tenecteplase thrombolysis in vitro, and neuroprotective stability to proteolysis” (Journal of Thrombosis and Thrombolysis, 2022):
No end group written: not given here.

Tests used:
plasmin = conditions: cited from earlier work
Source text: Given the potential future application of the R18D, R18 and NA-1 peptides as ischaemic stroke neurotherapeutics, it is important to establish if they interfere with current and future standard of care treatments, namely alteplase (tPA; recombinant tissue plasminogen activator) and tenecteplase (TNK; a modified version of tPA) thrombolysis, which are routinely administered prior to thrombectomy. […] NA-1 is also degraded by plasmin [8]. Together, these findings confirm that peptides synthesised with D-enantiomer amino acids such as R18D, unlike peptides synthesised with L-enantiomer amino acids are highly resistant to proteolytic degradation and are likely to retain their neuroprotective efficacy ...

tPA [1] = target: T1, tPA (Homo sapiens, UniProt P00750); conditions: cited from earlier work
T1 construct: purchased Boehringer Ingelheim, Germany 10 mg vial
Source text: (§1) A potential mechanism that could negatively influence the neuroprotective efficacy of a peptide (and protein) neurotherapeutic when co-administered with a thrombolytic agent in ischaemic stroke is its proteolytic stability. For example, a peptide could be degraded directly by the proteolytic action of tPA and TNK, or indirectly by plasmin following its activation by tPA/TNK.

[2] = in the order; 8 (NA-1), unpublished data (R18D); cited from earlier work
Source text: It is important to mention that the results obtained in this study are likely to overestimate any negative effects of R18D, R18 and NA-1 on tPA/TNK lag time and thrombolysis compared with what would occur clinically for several reasons. Firstly, positively charged peptides administered directly into the circulation would have a larger pool of negatively charged plasma proteins such as albumin to bind, and thus reduce any inhibitory electrostatic effects of the peptides on lag time and thrombolysis. In addition, the in vitro thrombolysis assay used in this study was performed in 27.5% plasma wh ...

whole blood halo clot = test: Halo assay dose response study of tPA and TNK; type: biochemical, human; conditions: 5 nM tPA or TNK, halo assay dose response study (Supplementary Fig. 1; assay performed without added plasma), N = 4
Protocol: We utilised a high throughput 96-well plate thrombolysis assay (“halo clot assay”) based on the procedure developed by Bonnard et al.. To reduce assay components the halo thrombus formation procedure was modified by replacing the original thrombotic mixture consisting of recombinant tissue factor and synthetic phospholipids reconstituted in 30 mM calcium, with thrombin, and reducing the pro-thrombotic volume (i.e., thrombin) from 5 to 3 µL and blood volume from 25 to 12 µL. […]
The thrombolysis assay involved adding 30 µL of Tris buffer (50 mM Tris–HCl, 100 mM NaCl, […] during thrombolysis 27.5%). […] Following the addition of tPA or TNK into the wells, clot lysis was monitored over a 1-h period at 37 °C using a plate reader (Cytation5, BioTek, USA) by measuring absorbance at 510 nm every 1 min immediately after orbital shaking (205 rpm for 5 s). […] At the 1-h time point, the percentage of thrombolysis (%T) in tPA or TNK treated samples (LTX) was calculated by transforming absorbance values based on the formula: % T = (LTX) − (L0%)/(L100%) − (L0%) × 100. In addition, during the 1-h period of clot lysis lag time and maximal activity (also known as maximum velocity or Vmax) of the thrombolysis reaction were calculated. The lag time is defined as the time interval between the first absorbance reading (time = 0) and the line of maximum slope of the thrombolysis reaction. […]

[3] = human, in vivo, 0.5 mg/kg; cited from earlier work
Source text: as §1

tPA [4] = target: T1, tPA; test: Halo clot thrombolysis assay, tPA thrombolysis of whole blood clots; type: biochemical; conditions: tPA 5 nM, 27.5% human plasma
Protocol: (§2) We utilised a high throughput 96-well plate thrombolysis assay (“halo clot assay”) based on the procedure developed by Bonnard et al.. To reduce assay components the halo thrombus formation procedure was modified by replacing the original thrombotic mixture consisting of recombinant tissue factor and synthetic phospholipids reconstituted in 30 mM calcium, with thrombin, and reducing the pro-thrombotic volume (i.e., thrombin) from 5 to 3 µL and blood volume from 25 to 12 µL. Another modification to simplify clot formation consisted of adding the thrombin (3 µL; 500 nM in saline) to one side of the well and 12 µL of blood to the opposite side of well, before using a heat stretched Pasteur pipette with sealed end to mix the two liquids together using 4 to 5 circular motions around the edge of the well (halo clot). The original methodology involved adding the 5 μL of the clotting mixture to the edge of the well, and then using a micropipette to slowly release the 25 μL of blood to the edge of the well while at the same time maintaining a circular motion. Plates were incubated in a humidified 37 °C incubator for 1 h before use in the thrombolysis assay.
(§3) The thrombolysis assay involved adding 30 µL of Tris buffer (50 mM Tris–HCl, 100 mM NaCl, pH 7.4) with or without peptide followed by 55 µL Tris buffer containing tPA or TNK (5 nM final concentration) and 50% human plasma (final plasma concentration during thrombolysis 27.5%). The final concentration of peptide during thrombolysis ranged from 0.25 to 16 µM (note: an intravenous dose of R18D at 350 nmol/kg, which is likely to be neuroprotective achieves a Cmax of 0.7–0.9 µM in healthy male and female rats; unpublished observation). […] Following the addition of tPA or TNK into the wells, clot lysis was monitored over a 1-h period at 37 °C using a plate reader (Cytation5, BioTek, USA) by measuring absorbance at 510 nm every 1 min immediately after orbital shaking (205 rpm for 5 s). Controls consisted of wells with no thrombin (100% clot lysis; L100%) and wells with no tPA or TNK (0% clot lysis; L0%). At the 1-h time point, the percentage of thrombolysis (%T) in tPA or TNK treated samples (LTX) was calculated by transforming absorbance values based on the formula: % T = (LTX) − (L0%)/(L100%) − (L0%) × 100. In addition, during the 1-h period of clot lysis lag time and maximal activity (also known as maximum velocity or Vmax) of the thrombolysis reaction were calculated. The lag time is defined as the time interval between the first absorbance reading (time = 0) and the line of maximum slope of the thrombolysis reaction. The maximal activity is calculated from the maximum slope over the time course of the assay and reflects the capacity of an enzyme to catalyse a reaction (i.e., thrombolysis), with higher values representing higher catalytic activity (i.e., tPA/TNK induced plasmin thrombolysis).
(§4) For each thrombolysis assay, replicates for control wells (L0% and L100%) and tPA or TNK only treated wells consisted of n = 4–8. Replicates for tPA or TNK and peptide treated wells consisted of n = 4. For data analysis and graphical representations of the results, data from three independent thrombolytic assays were pooled. Studies consisted of R18D, R18 and NA-1 examined at the 0.5, 1, 2, 4, 8 or 16 µM concentrations performed concurrently on the same 96-well plate, in respective order. In addition, since R18D is known to be resistant to plasmin degradation and appeared to have the most impact on tPA or TNK thrombolysis, a separate set of three independent assays were performed for this peptide alone at concentrations of 0.25, 0.5, 1, 2, 4, 8 or 16 µM. Furthermore, the second dose study with R18D provided the opportunity to include a lower concentration (0.25 µM) of the peptide and to provide comparative data when only one peptide was examined in the thrombolysis assay per 96-well plate as opposed to examining the three peptides concurrently on the same plate. […]

TNK [5] = target: T2, TNK (Homo sapiens, UniProt P00750, H332A/K331A/N152Q/R333A/R334A/T138N); test: Halo clot thrombolysis assay, TNK thrombolysis of whole blood clots; type: biochemical; conditions: concurrent study, TNK 5 nM, 27.5% human plasma
T2 construct: purchased Boehringer Ingelheim 50 mg vial
Protocol: as §2, §3, §4

tPA or TNK = type: biochemical, human
Protocol: as §2, §3
For each thrombolysis assay, replicates for control wells (L0% and L100%) and tPA or TNK only treated wells consisted of n = 4–8. Replicates for tPA or TNK and peptide treated wells consisted of n = 4. For data analysis and graphical representations of the results, data from three independent thrombolytic assays were pooled. Studies consisted of R18D, R18 and NA-1 examined at the 0.5, 1, 2, 4, 8 or 16 µM concentrations performed concurrently on the same 96-well plate, in respective order. […]

tPA [6] = target: T1, tPA; test: Neuroprotective proteolytic stability after pre-incubation with tPA (glutamic acid excitotoxicity model, MTS); type: in vitro ADME; conditions: 1 or 2 h or overnight (22-24 h)
Protocol: (§5) Neuronal cultures were maintained in CO2 incubator.
(§6) tPA (1000 µg/mL) or TNK (5000 µg/mL) resuspended in water (Baxter) were used to prepare 10 µg/mL (170 nM; note this is 34 times the concentration used in thrombolysis assay) stocks in MEM/2% B27 supplement (MEM/B27).
(§7) All data are presented as mean ± standard deviation (SD).

TNK [7] = target: T2, TNK; test: Neuroprotective proteolytic stability after pre-incubation with TNK (glutamic acid excitotoxicity model, MTS); type: in vitro ADME; conditions: 1 or 2 h or overnight (22-24 h)
Protocol: as §5, §6, §7

trypsin (TrypLE Express) = trypsin (TrypLE Express) (Fusarium oxysporum, UniProt P35049); conditions: inferred from neuroprotection; peptide 2 µM, 50% TrypLE Express, 1 or 2 h or overnight (22-24 h)
Chain of trypsin (TrypLE Express) (P35049 25-248): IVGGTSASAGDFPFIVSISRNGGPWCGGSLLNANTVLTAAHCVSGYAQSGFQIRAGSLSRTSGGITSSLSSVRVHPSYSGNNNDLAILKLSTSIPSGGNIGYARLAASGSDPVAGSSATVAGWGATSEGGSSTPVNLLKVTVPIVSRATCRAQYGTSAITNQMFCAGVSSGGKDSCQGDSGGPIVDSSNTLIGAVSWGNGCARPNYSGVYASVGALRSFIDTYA
Protocol: Rat primary cortical cultures were established from embryonic day 18–19 Sprague–Dawley rats (Animal Resources Centre, WA, Australia). Briefly, cortical tissue was dissociated in 2 mL Hanks balanced salt solution (HBBS; Life Technologies, Australia) supplemented with 1.3 mM L-cysteine, 10 U/mL papain (Sigma-Aldrich, Australia) and 50 U/mL DNase (Sigma-Aldrich) by trituration with a fire-polished pipette. Dissociated neurons were transferred to a 15-mL tube containing 13 mL of cold Dulbecco’s modified Eagle’s medium (DMEM; Life Technologies)/10% horse serum (Life Technologies) and centrifuged for 4 min at 300×g. Neurons were gently resuspended in 1.5 mL of cold Neurobasal (NB; Life Technologies)/2% B27 supplement (B27; Life Technologies) and the neuronal cell concentration adjusted to 50,000 neurons/70 μL and 70 μL inoculated into each well of a 96-well microtiter plate (Nunc, USA) pre-treated wells. Pre-treated wells were coated with 50 μL of poly-D-lysine (50 μg/mL; 70–150 K; Sigma-Aldrich) for 2–3 h at room temperature before being replaced with 50 μL of NB/B27, 4% fetal bovine serum (Life Technologies), 1% horse serum, 62.5 μM glutamic acid, 25 μM 2-mercaptoethanol, 30 μg/mL penicillin and 50 μg/mL streptomycin and placed in a CO2 incubator (5% CO2, 95% air balance, 98% humidity, 37 °C) prior to seeding with neurons. Neuronal cultures were maintained in CO2 incubator. On day in vitro four, 60 µL fresh NB/B27 containing the mitotic inhibitor cytosine arabinofuranoside (final concentration 0.15 μM; Sigma-Aldrich) was added and neuronal culture were used on day in vitro 11 to 13.
As an alternative to trypsin, TrypLE Express (Thermo Fischer Scientific, Australia) a synthetic serine protease with trypsin-like activity was used. […] Hereafter, TrypLE Express is referred to as trypsin.
Trypsin solution was added to an equal volume of MEM/2% B27 (T:MEM/B27). […] Following the incubation, 50 µL of the T:MEM/B27 or HBSS:MEM/B27 peptide solution was used to treat neuronal culture as described below for the glutamic acid excitotoxicity model. […]

T2 sequence (P00750 36-562 T138N/N152Q/K331A/H332A/R333A/R334A): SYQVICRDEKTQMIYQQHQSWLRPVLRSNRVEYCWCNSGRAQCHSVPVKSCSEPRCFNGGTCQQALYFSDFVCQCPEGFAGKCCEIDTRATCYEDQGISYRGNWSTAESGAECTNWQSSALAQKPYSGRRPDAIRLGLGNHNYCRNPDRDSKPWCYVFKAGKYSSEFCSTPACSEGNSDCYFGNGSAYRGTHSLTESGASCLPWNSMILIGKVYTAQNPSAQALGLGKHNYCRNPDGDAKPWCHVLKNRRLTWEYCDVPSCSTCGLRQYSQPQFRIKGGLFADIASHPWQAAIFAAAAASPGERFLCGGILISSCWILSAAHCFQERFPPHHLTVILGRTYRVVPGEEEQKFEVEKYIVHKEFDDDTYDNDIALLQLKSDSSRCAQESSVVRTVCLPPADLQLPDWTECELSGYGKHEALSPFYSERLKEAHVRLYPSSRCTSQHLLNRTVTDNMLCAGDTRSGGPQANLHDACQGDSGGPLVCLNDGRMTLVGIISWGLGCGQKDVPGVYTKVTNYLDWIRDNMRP
T1 sequence (P00750 36-562): as the sequence (P00750 36-562 T138N/N152Q/K331A/H332A/R333A/R334A) above, with N103T, Q117N, A296K, A297H, A298R, A299R counted along it

| Substance | Sensitivity to proteolytic degradation by plasmin (plasmin) | Degradation when incubated with tPA (tPA [1]) | In vivo peak plasma concentration [2] [µM] | Plasma half-life [2] [min] | Clot lysis after 1-h (whole blood halo clot) | Serum concentration [3] [nM] | Effect on tPA lag time vs tPA control (tPA [4]; concurrent study, 0.5-16 µM peptide) | Increase in tPA thrombolysis maximal activity (tPA [4]; peptide 16 µM, concurrent study, 37 °C) [%] | Effect on percentage tPA thrombolysis at 1 h vs tPA control (tPA [4]; three peptides concurrently on the same plate, 0.5-16 µM peptide, Tris pH 7.4, 37 °C, 1 h, absorbance 510 nm, three independent assays pooled, n = 4, Dunnett's test) | Effect on TNK thrombolysis maximal activity vs TNK control (TNK [5]; 0.5-16 µM peptide) | Effect on percentage TNK thrombolysis at 1 h vs TNK control (TNK [5]; 0.5-16 µM peptide, 37 °C, 1 h) | Increase in TNK lag time (TNK [5]; peptide 8 µM, 37 °C) [min] | Increase in lag time (time to the commencement of thrombolysis) (tPA or TNK; range over peptide concentrations 0.25-16 µM and both thrombolytics, 1-h assay) [min] | Effect on maximal activity of the thrombolysis reaction (tPA or TNK; summary in abstract) | Resistance to degradation by tPA (tPA [6]; inferred from retained neuroprotection, peptide 2 µM, tPA 170 nM) | Neuroprotective efficacy after incubation with tPA (tPA [6]; peptide 2 µM in MEM/B27 with tPA 10 µg/mL (170 nM), 37 °C CO2 incubator, then rat cortical neurons, glutamic acid 100 µM 5 min, MTS viability at 20-24 h, N = 4-8) | Resistance to degradation by TNK (TNK [7]; inferred from retained neuroprotection, peptide 2 µM, TNK 170 nM) | Neuroprotective efficacy after incubation with TNK (TNK [7]; peptide 2 µM in MEM/B27 with TNK 10 µg/mL (170 nM), 37 °C CO2 incubator, then rat cortical neurons, glutamic acid 100 µM 5 min, MTS viability at 20-24 h, N = 4-8) | Resistance to degradation by trypsin (trypsin (TrypLE Express)) | Neuroprotective properties in the glutamic acid excitotoxicity injury model when pre-incubated with plasmin (plasmin) |
| --- | --- | --- | --- | --- | --- | --- | --- | --- | --- | --- | --- | --- | --- | --- | --- | --- | --- | --- | --- | --- |
| YGRKKRRQRRRKLSSIESDV [NA-1, reference compound] | sensitive | is not degraded | 1 to 5 | 5 to 15 |  |  |  |  |  |  |  |  |  |  |  |  |  |  |  |  |
| tPA: recombinant tissue plasminogen activator |  |  |  |  | approximately 90% | ≤ 30 |  |  |  |  |  |  |  |  |  |  |  |  |  |  |
| RRRRRRRRRRRRRRRRRR [R18] | sensitive |  |  |  |  |  | did not significantly increase tPA lag time | 48.36 | did not significantly inhibit thrombolysis | did not significantly impact TNK thrombolysis maximal activity | did not significantly inhibit TNK thrombolysis | 5.53 | 0 to 5.53 | appeared to increase the maximal activity | resistant to degradation | a similar and a high level of neuroprotective efficacy | resistant to degradation | a similar and a high level of neuroprotective efficacy | only R18D is resistant | not |
